Measurements reported in paper PMC10403513, “Tasmanian devil cathelicidins exhibit anticancer activity against Devil Facial Tumour Disease (DFTD) cells” (Scientific Reports, 2023).
Where two headings read alike, the source gives them in different places. No end group written: not given here.

What was measured:
DFT1 1426 cells [1] = experiment: RNAseq differential gene expression in peptide-treated DFT1 1426 cells; type: cell-based, Tasmanian devil (Sarcophilus harrisii); settings: 500 μg/mL, 10 h, n = 3, vs vehicle control; for Fold change, gene E2F2: cyclin transcription factor; for Fold change, gene IL6: cytokine; for Fold change, gene MYD88: immune signaling; for percentage of DE genes: of 15,548 genes; for Fold change, gene RUNX1: transcription factor
Protocol: RNAseq was used to characterize the mechanisms underlying the anticancer activity of the peptides. Confluent DFT1 1426 cells (passage number 25) were re-suspended at a concentration of 5 × 10^5 cells/ml and 1 mL seeded into each well of a sterile flat-bottom polystyrene 12-well plate (Corning). Following incubation for 24 h at 35 °C 5% CO2, media was aspirated from the cells and replaced with 500 μL of RPMI 1640 with 2 mM L-glutamine, 10% FBS and 10% AmnioMax II. 500 μL of each 1 mg/mL peptide solution (Saha-CATH1 to 7) was then added to the plate in triplicate, to give a final peptide concentration of 500 μg/mL. […] A vehicle control was also added to the plate in triplicate.
The plate was then incubated for a further 10 h at 35 °C in 5% CO2. This incubation period was selected as the cytotoxicity assay indicated it was sublethal for most of the peptides and would maintain sufficient cell viability to extract intact RNA. Media was then aspirated from the cells, which were washed twice with Dulbecco’s phosphate buffered saline (DPBS) (Sigma-Aldrich).
Total RNA was extracted from each replicate of the peptide-treated and vehicle control cells (n = 3) using the RNeasy mini kit (Qiagen) with cell lysis directly in each well of the 12 well plate. Total RNA was quality assessed using the RNA nano 6000 kit on the Agilent Bioanalyzer with all samples displaying a RIN score between 5 and 9. In total, 24 RNA samples corresponding to three treatments per peptide (Saha-CATH1 to 7) and a vehicle control were submitted to Ramaciotti Centre for Genomics (The University of New South Wales) for sequencing. Illumina TruSeq mRNA libraries were prepared for all samples, which were sequenced as 2 × 150 bp paired-end reads across an SP flowcell on the NovaSeq6000.
Raw reads were quality assessed using FastQC v0.11.8[47], then quality and length trimmed using Trimmomatic v0.39[48] using default parameters. Trimmed reads for each treatment (n = 3) and the control (n = 3) were aligned to the Tasmanian devil reference genome v7.0 (NCBI: GCA_000189315.1[49] using STAR v2.7.8a[50]. Alignments for each treatment were summarized into gene counts using featureCounts in the subread package v1.5.1[51].
Gene counts were used as input for differential expression analysis in R[52]. Genes with less than 50 counts across all samples were removed from the analysis, as these were unlikely to be biologically relevant and lacked sufficient statistical power. Firstly, the data was normalized by trimmed mean of M values (TMM) using edgeR v3.32.1[53] to account for any composition bias between libraries and to give an effective library size for downstream analysis. Multidimensional scaling (MDS) was used to check for variation between treatments using limma v3.36.0[54]. Expression levels were then normalized using upper-quartile normalization in EDAseq v2.24.0[55] to account for differences in distribution between lanes, such as sequencing depth. Differential expression analysis was performed using voom in the limma v3.36.0 package.
(§1) Over-representation analysis of Biological Processes was conducted in clusterProfiler v3.18.1[57]. Statistical significance was adjusted for multiple comparisons using the Benjamini–Hochberg method, and terms were considered significant when p-adj < 0.05. To remove general terms, gene sets larger than 200 were removed, and the simplify function was used to remove redundant GO terms. Further pathway analysis was conducted in IPA (Qiagen)[58], using mammal as the species type and nervous system for the tissue/cell type.

DFT1 1426 cells [2] = type: cell-based, Tasmanian devil (Sarcophilus harrisii); settings: for decrease in cell viability compared to the growth control: alamarBlue, quadruplicate; for concentration toxic to DFT1 1426 cells: summary in the discussion; for effect on cell viability (in words): 12-36 h
Protocol: The DFT1 cell line 1426, derived from a primary DFT1 tumour, was obtained from Menzies Institute for Medical Research, University of Tasmania. The cell line was maintained in RPMI 1640 media with 2 mM L-glutamine (Gibco) supplemented with 10% AmnioMax II (Gibco), 10% heat-inactivated foetal bovine serum (FBS) and 1% penicillin/streptomycin (Sigma-Aldrich), in T75 flasks (Nunc) at 35 °C 5% CO2. Cells were passaged using trypsin–EDTA (Sigma-Aldrich) when 90% confluent.
Toxicity of seven Tasmanian devil cathelicidins against DFT1 1426 cells was determined for twofold dilutions from 500 to 15.62 µg/mL, and four different timepoints (12, 18, 24 and 36 h). Confluent DFT1 1426 cells (passage 22) were re-suspended in RPMI 1640 with 10% FBS and 10% AmnioMax II at a concentration of 5 × 10^5 cells/mL, and 100μL seeded into each well of a sterile flat-bottom 96 well plate (Corning), with individual plates for each timepoint (12, 18, 24 and 36 h). All plates were incubated for 24 h at 35 °C 5% CO2 prior to the cytotoxicity test.
At 0 h, 100 μL of each peptide dilution was then added to each plate in quadruplicate for all timepoints (12, 18, 24 and 36 h), resulting in a final peptide concentrations of 500 μg/mL, 250 μg/mL, 125 μg/mL, 62.50 μg/mL, 31.25 μg/mL and 15.62 μg/mL. […] An untreated growth control of RPMI 1640, a positive control of dimethylsulfoxide (DMSO) (15%) and sterility control of RPMI 1640 only (no cells) were also included for each time point.
For the 12 h timepoint, 10% alamarBlue was immediately added to each well of the plate after addition of the peptide. For the remaining timepoints, plates were incubated for an additional 6, 12 or 24 h after addition of the peptides, then 10% alamarBlue added to each well. For all timepoints, after the addition of alamarBlue cells were incubated for a further 12 h, resulting in a total peptide incubation period of 12, 18, 24 and 36 h. Absorbance of alamarBlue for all timepoints was determined at 570 nm and 630 nm on a Biotek 800 TS microplate reader. Cell viability was calculated according to manufacturer’s instructions and expressed as a percentage of cell survival compared to the untreated growth control.
A one-sample, one-tailed t-test was used to test for significant difference in viability between treated cells and the negative growth control. A one sample, two-tailed t-test was also conducted to ensure there was no significant difference in viability between the negative growth control and the cells treated with the solvent only. Statistical analysis was conducted in R (R Development Core Team 2021).

human red blood cells = settings: cited from earlier work
Description: Cathelicidins have been isolated from many vertebrate taxa[34]–[37]. However, they have undergone gene expansion in marsupials due to the need for additional protection of immunologically naïve young during development in the pouch. […] During development within the pouch, young are exposed to diverse microbial flora, some of which are pathogenic. This has likely encouraged the lineage-specific expansion of cathelicidins in marsupials, resulting in mult ...

DFT1 1426 cells [3] = experiment: Ingenuity Pathway Analysis (canonical pathways) of DE genes in treated DFT1 1426 cells; type: cell-based, Tasmanian devil (Sarcophilus harrisii); settings: DE genes of cells treated with 500 μg/mL for 10 h
Protocol: as §1

human cell line A549 = settings: cited from earlier work
Protocol: Here we aimed to identify cathelicidin candidates for future development as anti-DFTD therapeutics. Four Tasmanian devil cathelicidins (Saha-CATH3, 4, 5 and 6) were toxic to DFT1 1426 cells at high concentrations: Saha-CATH3 at concentrations ≥ 62.5 µg/mL; Saha-CATH4 at 500 µg/mL; Saha-CATH5 at concentrations ≥ 125 µg/mL and Saha-CATH6 at concentrations ≥ 250 µg/mL. Previous studies have shown that two of these peptides (Saha-CATH3 and 4) are non-toxic to human cell line A549[44]. The other two (Saha-CATH5 and 6) reduced cell viability at high concentrations (500 µg/mL), resulting in 42% and 5 ...

[4] = 500 μg/mL, 36 h, DFT1 1426 cells
[5] = pre-replication complex, RNAseq

## KRMGIFHLFWAGLRKLGNLIKNKIQQGIENFLG [Saha-CATH3]
DFT1 1426 cells [1]; G1-S phase transition, RNAseq
  Fold change, gene CCND3: 0.62
  Fold change, gene CCNE1: 0.57
  Fold change, gene CCNE2: 0.61
DFT1 1426 cells [1]; RNAseq
  Fold change, gene E2F2: 0.48
  Fold change, gene IL6: 4.38
  Fold change, gene MYD88: 2.64
  Fold change, gene RUNX1: 2.71
DFT1 1426 cells [1]; cytokine receptor, RNAseq
  Fold change, gene IL1R1: 2.41
  Fold change, gene IL6R: 2.88
DFT1 1426 cells [1]
  percentage of DE genes: 12.63%
DFT1 1426 cells [2]; [4]
  decrease in cell viability compared to the growth control: more than 50%
DFT1 1426 cells [2]; 500 μg/mL, DFT1 1426 cells
  incubation period required before exhibiting a similar level of toxicity to Saha-CATH5: 18 h
DFT1 1426 cells [2]; 18 h
  cytotoxic concentration (cell viability reduced by more than 50%): 62.5 to 250 µg/mL
DFT1 1426 cells [2]
  concentration toxic to DFT1 1426 cells: ≥ 62.5 µg/mL
Human red blood cells
  haemolysis of human red blood cells (in words): not haemolytic
DFT1 1426 cells [3]
  IPA z-score, Cyclins and Cell Cycle Regulation: -2.333
  IPA z-score, Th17 activation pathway: 3.317
Human cell line A549
  toxicity to human cell line A549 (in words): non-toxic

## KRIGLGGLIGRILDRLRRLG [Saha-CATH5]
DFT1 1426 cells [1]; RNAseq
  Fold change (FC), gene ERBB3: 0.34
DFT1 1426 cells [1]; G1-S phase transition, RNAseq
  Fold change, gene CCND1: 0.52
  Fold change, gene CCNE1: 0.37
  Fold change, gene CCNE2: 0.30
DFT1 1426 cells [1]
  percentage of DE genes: 74.05%
DFT1 1426 cells [1]; [5]
  Fold change, gene CDC6: 0.39
  Fold change, gene CDC45: 0.42
  Fold change, gene ORC1: 0.54
DFT1 1426 cells [2]; [4]
  decrease in cell viability compared to the growth control: more than 50%
DFT1 1426 cells [2]; 500 µg/mL, after 18 h, mean of quadruplicate
  cell viability (% of untreated growth control): 0%
DFT1 1426 cells [2]; 36 h
  cytotoxic concentration (cell viability reduced by more than 50%): ≥ 125 µg/mL
DFT1 1426 cells [2]
  concentration toxic to DFT1 1426 cells: ≥ 125 µg/mL
Human red blood cells; human red blood cells
  concentration at which moderately haemolytic: above 250 μg/mL
DFT1 1426 cells [3]
  IPA z-score, ERBB2-ERBB3: -4.439
  IPA z-score, ERBB4 signaling: -5.425
  IPA z-score, ERBB signaling: -6.068
  IPA z-score, Hippo signalling: 0.898
  IPA z-score, cell cycle control of chromosomal replication: -3.780
Human cell line A549; 500 µg/mL
  cell survival of human cell line A549: 42%

## TFKRKNGSRKNGHRPGGYSLIALGNKKVLKAPYMESI [Saha-CATH2, Tasmanian devil cathelicidin mature peptide, synthesized by ChinaPeptides Co. Ltd to 95% purity]
DFT1 1426 cells [1]
  percentage of DE genes: less than 1%
DFT1 1426 cells [2]; 500 µg/mL, DFT1 1426 cells
  effect on cell viability (in words): did not reduce cell viability

## GIKHILFMAKTKLPRATCTAEIKENCDRKK [Saha-CATH1, Tasmanian devil cathelicidin mature peptide, synthesized by ChinaPeptides Co. Ltd to 95% purity]
DFT1 1426 cells [1]
  percentage of DE genes: less than 1%
DFT1 1426 cells [2]; 500 µg/mL, DFT1 1426 cells
  effect on cell viability (in words): did not reduce cell viability

## STILEDPGKIRERRDIGEEPIQKKQKMYRDQMQ [Saha-CATH7, Tasmanian devil cathelicidin mature peptide, synthesized by ChinaPeptides Co. Ltd to 95% purity]
DFT1 1426 cells [1]
  percentage of DE genes: less than 1%
DFT1 1426 cells [1]; out of a total of 15,548 genes
  number of differentially expressed (DE) genes: 0
DFT1 1426 cells [2]; 500 µg/mL, DFT1 1426 cells
  effect on cell viability (in words): did not reduce cell viability

## KREDFLDQIIRDFRNFIYQKYRRLRDEFRKLRDILSG [Saha-CATH4, Tasmanian devil cathelicidin mature peptide, synthesized by ChinaPeptides Co. Ltd to 95% purity]
DFT1 1426 cells [1]; G1-S phase transition, RNAseq
  Fold change, gene CCND3: 0.35
  Fold change, gene CCNE1: 0.44
  Fold change, gene CCNE2: 0.31
DFT1 1426 cells [1]; RNAseq
  Fold change, gene E2F2: 0.28
  Fold change, gene IL6: 3.73
  Fold change, gene MYD88: 4.15
  Fold change, gene RUNX1: 2.43
DFT1 1426 cells [1]; cytokine receptor, RNAseq
  Fold change, gene IL6R: 5.25
DFT1 1426 cells [1]
  percentage of DE genes: 18.75%
DFT1 1426 cells [1]; [5]
  Fold change, gene CDC6: 0.29
  Fold change, gene CDC7: 0.38
  Fold change, gene ORC1: 0.46
DFT1 1426 cells [2]
  concentration toxic to DFT1 1426 cells: 500 µg/mL
DFT1 1426 cells [3]
  IPA z-score, Cyclins and Cell Cycle Regulation: -3.317
  IPA z-score, Th17 activation pathway: 3.317
  IPA z-score, cell cycle control of chromosomal replication: -3.638
Human cell line A549
  toxicity to human cell line A549 (in words): non-toxic
